Results reported in US4013662A, “Alkyl and benzyl 6,7-dialkoxy-2-methyl-4-oxo-1,2,3,4-tetrahydroquinoline-1-carboxylates” (Pfizer Inc., priority 1975, dated 1977).

Experiments:
[1] = Rat Flinch Jump Test (suppression of the jump component); assay type: in vivo; design: unit not given here
Description: D. Suppression of the "jump" component of the Flinch-Jump Test [Evans, Psychopharmacologia, 2, 318 (1961)].
The following results were obtained when the performance of the d-, l and dl- forms of a compound of the invention were compared in the Rat Flinch Jump Thresholds The control Jump Threshold using saline were 0.78 at 0.5 hr. and 0.92 at 2 hr.
The following results were obtained when 6,7-dimethoxy-2-methyl-4-oxo-1,2,3,4-tetrahydroquinoline, ethyl 6,7-dimethoxy-2-methyl-4-oxo-1,2,3,4-tetrahydroquinoline-1-carboxylate and benzyl 6,7-dimethoxy-2-methyl-4-oxo-1,2,3,4-tetrahydroquinoline-1-carboxylate were compared in the Rat Flinch Jump Test. The dosage of test compound was 56 mpk. Each of the compounds was in its racemic form.

[2] = Conditioned Avoidance Behavior (Maffi); assay type: in vivo; settings: 0.5 hr.
Description: (§1) A. Conditioned Avoidance Behavior [Maffi, J. Pharmacol., 11, 129 (1959); Sidman, Science, 118, 157 (1953)].

[3] = Conditioned Avoidance Behavior (Sidman); assay type: in vivo
Description: as §1

[4] = Sedation Test (jiggle cage); assay type: in vivo, male Sprague-Dawley rats; settings: oral, jiggle cage for 1 hr. from 1.5 hr.
Description: B. Sedation Test -- The subjects were male Sprague-Dawley rats weighing approximately 200 g and fed and watered ad lib before the experiment. Eight rats were assigned to each treatment group, and each rat was used only once.
1.5 hr. after oral treatment, each rat was placed in a standard jiggle cage for 1 hr. In this device, the subject was confined in a 6 × 6 × 3.5 in. Plexiglas enclosure. The enclosure was attached to one end of a flexible steel arm. This configuration, all of which was housed in a soundproof, ventilated chamber, allowed the enclosure to jiggle slightly with any movement. A force displacement transducer mounted under the jiggle cage monitored any vertical movement of the subject. The output of the transducer was coupled to a strain-gauge amplifier and to an analog recorder. To provide digital data of movement/non-movement times a trigger circuit was constructed in which the output of the strain-gauge amplifier was attentuated and rectified to activate a relay whenever the subject moved. When the relay remained deenergized for 3 sec., a timer was activated. Movement by the subject energized the relay and stopped the timer until 3 sec. of immobility recurred. This 3 sec. criterion eliminated brief periods of inactivity observed even in active rats. […]

[5] = Symptomatology (rotorod, inclined plane); assay type: in vivo, mice; settings: intraperitoneally; for Symptomatology, Inclined Plane: inability to remain on an inclined plane; for Symptomatology, Rotorod: inability to ride a rotating rod
Experimental: c. Symtomatology--Four groups of 3 mice were treated intraperitoneally with 31.6, 100, 316, or 1000 mg/kg of the test compound. At 1/2, 2, or 5 hours after treatment, symtomatological observations were made; observations were all-or-none, and classified into autonomic, muscular, reflex or behavioral categories. […] Symptoms interpreted as indicating tranquilizer activity included decreased spontaneous motor activity, inability to ride a rotating rod (rotorod), and inability to remain on an inclined plane.

[6] = Escape Titration Test; assay type: in vivo; settings: p.o.
Description: E. Escape Titration Test [Weiss et al, Science, 128, 1575 (1958) ].

[7] = PBQ Writhing (Suppression of Writhing Test); assay type: in vivo; settings: 100 mpk
Description: F. Suppression of Writhing Test [Siegmund et al, Proc. Sec. Exp. Biol., 95, 729 (1957].

[8] = Hot Plate Test; assay type: in vivo; settings: 100 mpk
Description: G. Hot Plate Test [Eddy et al, J. Pharm. Exp. Ther., 107, 385 (1953)].

[9] = Tail Flick Test; assay type: in vivo; settings: 100 mpk
Description: H. Tail Flick Test [Witkin et al, Proc. Soc. Exp. Biol., 101, 377 (1959)].

[10] = LD50; settings: in vivo
[11] = Mouse Tail Pinch Technique (modified Haffner procedure); assay type: in vivo, mice; settings: lack of an audible squeak
Description: The activity of compounds of this invention as analgesic agents has also been shown by testing their effectiveness in a Mouse Tail Pinch Technique. This technique was a modification of the Haffner procedure [Deutsche Med. Wochenschrifte, 55, 731-732 (1929)] in which the mice were strongly pinched on the base of the tail. An audible squeak was elicited in normal non-drugged mice. Lack of an audible squeak was taken as indication of analgesic activity in drugged mice.

[12] = 56 mpk, 0.5 hr., racemic compounds compared (table 4)
[13] = 56 mpk, 2.0 hr., racemic compounds compared (table 4)
[14] = 17.5 mpk, 2 hr, d-, l- and dl- forms compared, saline control 0.92
[15] = 17.5 mpk, .5 hr, d-, l- and dl- forms compared, saline control 0.78
[16] = 32 mpk, 2 hr, d-, l- and dl- forms compared, saline control 0.92
[17] = 32 mpk, .5 hr, d-, l- and dl- forms compared, saline control 0.78
[18] = 56 mpk, 2 hr, d-, l- and dl- forms compared, saline control 0.92
[19] = 56 mpk, .5 hr, d-, l- and dl- forms compared, saline control 0.78

COc1cc2c(cc1OC)C(=O)CC(C)N2 (racemic) [6,7-Dimethoxy-2-methyl-4-oxo-1,2,3,4-tetrahydroquinoline]
Jump Threshold [1, 12]: 1.47 | Jump Threshold [1, 13]: 1.10

COc1cc2c(cc1OC)N(C(=O)OCc1ccccc1)C(C)CC2=O (racemic) [Benzyl 6,7-Dimethoxy-2-methyl-4-oxo-1,2,3,4-tetrahydroquinoline-1-carboxylate]
Jump Threshold [1, 12]: 1.47 | Jump Threshold [1, 13]: 1.21

CCOC(=O)N1c2cc(OC)c(OC)cc2C(=O)CC1C (racemic) [Ethyl 6,7-Dimethoxy-2-methyl-4-oxo-1,2,3,4-tetrahydroquinoline-1-carboxylate]
Jump Threshold [1, 14]: 0.98 | Jump Threshold [1, 15]: 1.26 | Jump Threshold [1, 16]: 1.18 | Jump Threshold [1, 17]: 1.38 | Jump Threshold [1, 12]: 1.58 | Jump Threshold [1, 13]: 1.42 | Jump Threshold [1, 18]: 1.45 | Jump Threshold [1, 19]: 1.58

CCOC(=O)N1c2cc(OC)c(OC)cc2C(=O)CC1C (single isomer, unassigned) [d-ethyl 6,7-dimethoxy-2-methyl-4-oxo-1,2,3,4-tetrahydroquino] [d-Ethyl 6,7-Dimethoxy-2-methyl-4-oxo-1,2,3,4-tetrahydroquinoline-1-carboxylate]
Jump Threshold [1, 14]: 0.98 | Jump Threshold [1, 15]: 1.26 | Jump Threshold [1, 16]: 1.38 | Jump Threshold [1, 17]: 1.45 | Jump Threshold [1, 18]: 1.45 | Jump Threshold [1, 19]: 1.51

CCOC(=O)N1c2cc(OC)c(OC)cc2C(=O)CC1C (single isomer, unassigned) [l-ethyl 6,7-dimethoxy-2-methyl-4-oxo-1,2,3,4-tetrahydroquino] [l-Ethyl 6,7-Dimethoxy-2-methyl-4-oxo-1,2,3,4-tetrahydroquinoline-1-carboxylate]
Jump Threshold [1, 14]: 0.92 | Jump Threshold [1, 15]: 0.92 | Jump Threshold [1, 16]: 0.86 | Jump Threshold [1, 17]: 0.85 | Jump Threshold [1, 18]: 0.86 | Jump Threshold [1, 19]: 1.05

CCOC(=O)N1c2cc(OC)c(OC)cc2C(=O)CC1C (stereo not shown) [drawing 7]
Conditioned Avoidance Behavior, Maffi [2]: Active at 56, 32 and 10 mpk | Conditioned Avoidance Behavior, Sidman ([3]; 17.8 mpk): 2 of 3 animals | Conditioned Avoidance Behavior, Sidman ([3]; 32 mpk): Active in 3 of 3 animals | Sedation Test ([4]; 10 mpk): Inactive at 10 | Sedation Test ([4]; 32 mpk): Active at 32 mpk | Symptomatology, Inclined Plane [5]: 32-100 mpk | Symptomatology, Rotorod [5]: 3.2-10 mpk

COC(=O)N1c2cc(OC)c(OC)cc2C(=O)CC1C (stereo not shown) [drawing 8]
Symptomatology, Inclined Plane [5]: 100-316 mpk | Symptomatology, Rotorod [5]: 100-316 mpk

CCCCOC(=O)N1c2cc(OC)c(OC)cc2C(=O)CC1C (stereo not shown) [drawing 9]
Symptomatology, Inclined Plane [5]: 100-316 mpk | Symptomatology, Rotorod [5]: 32-100 mpk

COc1cc2c(cc1OC)N(C(=O)OCc1ccccc1)C(C)CC2=O (stereo not shown) [drawing 10]
Symptomatology, Inclined Plane [5]: 100-316 mpk | Symptomatology, Rotorod [5]: 100-316 mpk

CCOC(=O)N1c2cc(OC)c(OC)cc2C(=O)CC1C (stereo not shown) [drawing 11]
Rat Flinch Jump Test, Jump Threshold ([1]; 3.2 mpk i.p., 2 h): .6 | Rat Flinch Jump Test, Jump Threshold ([1]; 3.2 mpk i.p., .5 h): .8 | Rat Flinch Jump Test, Jump Threshold ([1]; 10 mpk i.p., 2 h, Run two): .8 | Rat Flinch Jump Test, Jump Threshold ([1]; 32 mpk i.p., 2 h): > 2.2 | Rat Flinch Jump Test, Jump Threshold ([1]; 32 mpk i.p., .5 h): > 2.2 | Escape Titration [6]: Active at 32 mpk (p.o.) | PBQ Writhing [7]: Inactive at 100 mpk | Hot Plate % Protected ([8]; 2 h): 0% | Hot Plate % Protected ([8]; .5 h): 0% | Tail Flick % Protected ([9]; 2 h): 0% | Tail Flick % Protected ([9]; .5 h): 0% | LD50 [10]: > 1000 mg/kg

COC(=O)N1c2cc(OC)c(OC)cc2C(=O)CC1C (stereo not shown) [drawing 12]
Rat Flinch Jump Test, Jump Threshold ([1]; 32 mpk i.p., 2 h): 1.2 | Rat Flinch Jump Test, Jump Threshold ([1]; 32 mpk i.p., .5 h): 1.6 | PBQ Writhing [7]: Inactive at 100 mpk | Hot Plate % Protected ([8]; 2 h): 0% | Hot Plate % Protected ([8]; .5 h): 0% | Tail Flick % Protected ([9]; 2 h): 0% | Tail Flick % Protected ([9]; .5 h): 0% | LD50 [10]: > 1000 mg/kg

CCCCOC(=O)N1c2cc(OC)c(OC)cc2C(=O)CC1C (stereo not shown) [drawing 13]
Rat Flinch Jump Test, Jump Threshold ([1]; 32 mpk i.p., 2 h): 1.2 | Rat Flinch Jump Test, Jump Threshold ([1]; 32 mpk i.p., .5 h): 1.6 | PBQ Writhing [7]: Inactive at 100 mpk | Hot Plate % Protected ([8]; 2 h): 0% | Hot Plate % Protected ([8]; .5 h): 0% | Tail Flick % Protected ([9]; 2 h): 0% | Tail Flick % Protected ([9]; .5 h): 0% | LD50 [10]: 316 to 1000 mg/kg

COc1cc2c(cc1OC)N(C(=O)OCc1ccccc1)C(C)CC2=O (stereo not shown) [drawing 14]
PBQ Writhing [7]: Inactive at 100 mpk | LD50 [10]: > 1000 mg/kg

CCOC(=O)N1c2cc(OC)c(OC)cc2C(=O)CC1C (stereo not shown) [drawing 15]
ED50 [11]: > 100 mg/kg

COC(=O)N1c2cc(OC)c(OC)cc2C(=O)CC1C (stereo not shown) [drawing 16]
ED50 [11]: 100 to 316 mg/kg

CCCCOC(=O)N1c2cc(OC)c(OC)cc2C(=O)CC1C (stereo not shown) [drawing 17]
ED50 [11]: > 32 mg/kg
